One data set in a line: Plasma stability (Rat). It is filed as in vitro ADME. The conditions noted are these: after 60 minutes. As for the experimental part: (§1) Plasma stability of disclosed compounds was investigated. The following table indicates the percent of compound remaining after 60 minutes.
The nature of data set [1]: Microsomal stability (Human). It is filed as in vitro ADME. The settings on record: after 60 minutes. As for the experimental part:
(§2) Microsomal stability of disclosed compounds was investigated. The following table indicates the percent of compound remaining after 60 minutes.

The next data set is described as follows: Plasma stability (Human). The class given is in vitro ADME. The conditions noted are these: after 60 minutes. As for the experimental part: as §1
The target of a further data set is T1, NMDAR2B (Homo sapiens, UniProt Q13224).
T1 construct: expressed in transfected cells; host or cells: HEK cells (membrane extract)
Kind of data set: NMDAR agonist assay, [3H]MK-801 binding, NMDAR2B expressing HEK cell membranes. It is filed as biochemical. The settings on record: 50 μM glutamate; for EC50: read-out: NMDAR2B B: log EC50 (converted); for NMDAR2B A: % maximal [3H]MK-801 binding relative to 1 mM glycine / Emax: relative to 1 mM glycine; for Emax: read-out: NMDAR2B A: % maximal [3H]MK-801 binding relative to 1 mM glycine. As for the experimental part:
(§3) Assays were conducted as described by Moskal et al., “GLYX-13: a monoclonal antibody-derived peptide that acts as an N-methyl-D-aspartate receptor modulator,” Neuropharmacology, 49, 1077-87, 2005. These studies were designed to determine if the test compounds act to facilitate NMDAR activation in NMDAR2A, NMDAR2B, NMDAR2C or NMDAR2D expressing HEK cell membranes as measured by increases in [^3H]MK-801 binding.
(§4) In the assay, 300 μg of NMDAR expressing HEK cell membrane extract protein was preincubated for 15 minutes at […] in the presence of saturating concentrations of glutamate (50 μM) and varying concentrations of test compound (1×10^−15M-1×10^−7M), or 1 mM glycine. Following the addition of 0.3 μCi of [3H]MK-801 (22.5 Ci/mmol), reactions were again incubated for 15 minutes at 25° C. (nonequilibrium conditions). Bound and free [3H]MK-801 were separated via rapid filtration using a Brandel apparatus.
(§5) In analyzing the data, the DPM (disintegrations per minute) of [3H]MK-801 remaining on the filter were measured for each concentration of test compound or for 1 mM glycine. The DPM values for each concentration of a ligand (N=2) were averaged. The baseline value was determined from the best fit curve of the DPM values modeled using the GraphPad program and the log(agonist) vs. response (three parameters) algorithm was then subtracted from all points in the dataset. The % maximal [^3H]MK-801 binding was then calculated relative to that of 1 mM glycine: all baseline subtracted DPM values were divided by the average value for 1 mM glycine. The EC50 and % maximal activity were then obtained from the best fit curve of the % maximal [3H]MK-801 binding data modelled using the GraphPad program and the log(agonist) vs. response (three parameters) algorithm.
(§6) The tables below summarize the results for the wild type […] NMDAR2A, NMDAR2B, NMDAR2C, and NMDAR2D, and whether the compound is not an agonist (−), is an agonist (+), or is a strong agonist (++), where column A is based on the % maximal [3H]MK-801 binding relative to 1 mM glycine (−=0; <100%=+; and >100%=++); and column B is based on log EC50 values (0=−; ≥1×10^−9 M (e.g., −8)=+; and <1×10^−9 M (e.g., −10)=++).

The target of the next data set is T2, NMDAR2A (Homo sapiens, UniProt Q12879).
T2 construct: expressed in transfected cells; host or cells: HEK cells (membrane extract)
Put plainly: NMDAR agonist assay, [3H]MK-801 binding, NMDAR2A expressing HEK cell membranes. It is filed as biochemical. The conditions noted are these: 50 μM glutamate; for EC50: read-out: NMDAR2A B: log EC50 (converted). As for the experimental part: as §3, §4, §5, §6

Data set [2] is described as follows: Microsomal stability (Rat). The conditions noted are these: after 60 minutes. It is filed as in vitro ADME. As for the experimental part:
as §2

The test system of a further data set is Sprague Dawley rats. Kind of data set: Porsolt forced swim test. It is filed as in vivo. The conditions noted are these: 1 h post-dose, 0.1 mg/kg. As for the experimental part:
A non-clinical in vivo pharmacology study (Porsolt assay) was performed to measure antidepressant-like effects. The study allowed for the evaluation of the effects of each compound on the Porsolt forced swim test as assessed by the rats' response (reduced floating time) during a 5-minute swimming test.
Male 2-3 month old Sprague Dawley rats were used (Harlan, Indianapolis, Ind.). Rats were housed in Lucite cages with aspen wood chip bedding, maintained on a 12:12 light:dark cycle (lights on at 5 AM), and given ad libitum access to Purina lab chow (USA) and tap water throughout the study.
The Porsolt forced swim test adapted for use in rats was performed as described by Burgdorf et al., (The long-lasting antidepressant effects of rapastinel (GLYX-13) are associated with a metaplasticity process in the medial prefrontal cortex and hippocampus. Neuroscience 308:202-211, 2015). Animals were placed in a 46 cm tall×20 cm in diameter clear glass tube filled to 30 cm with tap water (23±1° C.) for 15 min on the first day (habituation) and 5 min on the subsequent test day. Animals were tested 1 h or 24 h post-dosing with the test compounds or vehicle control (0.5% sodium carboxymethyl cellulose in 0.9% sterile saline). A subset of compounds tested at 1 h post-dosing was tested again 1 wk post-dosing. Animals received a 15 min habituation session 1 day before the first 5 min test. Water was changed after every other animal. Animals were videotaped, and floating time as defined as the minimal amount of effort required to keep the animals head above water was scored offline by a blinded experimenter with high inter-rater reliability (Pearson's r >0.9).

Data set [3] is described as follows: Oral pharmacokinetics in Sprague Dawley rats (plasma, brain, CSF). The class given is in vivo. The conditions noted are these: rat, 10 mg/kg; for Tmax / AUC(0-t) / bioavailability / Cmax: Sprague-Dawley, po, plasma; for Tmax / AUC(0-t) / Cmax / CSF Cmax / Brain Cmax: per os; for Tmax: read-out: Tmax; for bioavailability: per os 10 mg/kg; for Cmax: read-out: Cmax. As for the experimental part: In another experiment, Sprague Dawley rats were dosed per os (oral gavage) using a normal saline formulation containing 10 mg/kg of the compounds identified in the table below. Plasma, brain, and CSF samples were analyzed at various time points over a 24 hour period. The table below summarizes the results of the oral pharmacokinetics, where the first three values (Tmax, Cmax and AUClast) are plasma values.

Data set [4] is described as follows: IV pharmacokinetics in Sprague Dawley rats. The class given is in vivo. The conditions noted are these: Sprague-Dawley, rat, in vivo, iv, 2 mg/kg, normal saline; for Cmax: read-out: Cmax; for Vd: read-out: Vss. As for the experimental part:
Sprague Dawley rats were dosed intravenously using a normal saline formulation containing 2 mg/kg of the compounds identified in the below table. The table below summarizes the results of the IV pharmacokinetics.

Where “and” joins values, the source holds several entries; their conditions need not be identical. Equal values may be shown once.

T1 sequence (Q13224 27-1484, species assumed, other chains not shown): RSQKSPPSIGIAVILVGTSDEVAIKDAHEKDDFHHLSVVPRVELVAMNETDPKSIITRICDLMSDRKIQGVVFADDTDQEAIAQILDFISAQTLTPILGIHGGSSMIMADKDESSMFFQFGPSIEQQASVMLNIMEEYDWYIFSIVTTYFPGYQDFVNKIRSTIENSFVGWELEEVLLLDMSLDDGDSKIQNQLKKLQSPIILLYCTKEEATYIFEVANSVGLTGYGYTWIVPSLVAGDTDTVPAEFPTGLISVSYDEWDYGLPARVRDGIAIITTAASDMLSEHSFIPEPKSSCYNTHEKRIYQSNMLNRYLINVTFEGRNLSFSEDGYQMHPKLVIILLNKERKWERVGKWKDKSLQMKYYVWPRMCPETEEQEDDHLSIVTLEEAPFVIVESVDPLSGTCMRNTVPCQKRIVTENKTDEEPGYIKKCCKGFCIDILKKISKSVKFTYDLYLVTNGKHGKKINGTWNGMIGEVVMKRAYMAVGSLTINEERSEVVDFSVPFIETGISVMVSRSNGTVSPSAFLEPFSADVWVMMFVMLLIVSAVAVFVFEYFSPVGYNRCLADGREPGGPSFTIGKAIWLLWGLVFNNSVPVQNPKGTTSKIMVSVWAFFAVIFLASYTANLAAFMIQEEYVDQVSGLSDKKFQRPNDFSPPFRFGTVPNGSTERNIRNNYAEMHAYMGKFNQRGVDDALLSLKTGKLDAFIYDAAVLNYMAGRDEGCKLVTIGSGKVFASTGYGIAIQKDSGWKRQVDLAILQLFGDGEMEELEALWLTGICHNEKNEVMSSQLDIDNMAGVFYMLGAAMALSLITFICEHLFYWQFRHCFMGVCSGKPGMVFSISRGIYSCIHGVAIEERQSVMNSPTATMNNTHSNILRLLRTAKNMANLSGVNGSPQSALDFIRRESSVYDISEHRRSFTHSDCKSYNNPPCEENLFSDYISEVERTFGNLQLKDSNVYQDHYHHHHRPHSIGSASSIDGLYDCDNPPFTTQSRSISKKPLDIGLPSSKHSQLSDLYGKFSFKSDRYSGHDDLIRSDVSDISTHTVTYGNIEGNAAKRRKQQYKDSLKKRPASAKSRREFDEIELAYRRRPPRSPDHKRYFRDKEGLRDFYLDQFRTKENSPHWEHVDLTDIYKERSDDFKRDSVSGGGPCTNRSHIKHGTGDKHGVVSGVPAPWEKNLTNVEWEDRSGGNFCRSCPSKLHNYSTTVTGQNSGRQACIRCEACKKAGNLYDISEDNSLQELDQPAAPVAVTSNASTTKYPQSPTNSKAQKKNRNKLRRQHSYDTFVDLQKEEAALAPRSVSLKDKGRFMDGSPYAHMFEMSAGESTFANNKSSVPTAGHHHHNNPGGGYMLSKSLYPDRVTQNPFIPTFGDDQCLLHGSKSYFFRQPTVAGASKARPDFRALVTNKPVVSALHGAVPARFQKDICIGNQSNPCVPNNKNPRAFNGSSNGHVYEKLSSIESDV
T2 sequence (Q12879 23-1464, species assumed, other chains not shown): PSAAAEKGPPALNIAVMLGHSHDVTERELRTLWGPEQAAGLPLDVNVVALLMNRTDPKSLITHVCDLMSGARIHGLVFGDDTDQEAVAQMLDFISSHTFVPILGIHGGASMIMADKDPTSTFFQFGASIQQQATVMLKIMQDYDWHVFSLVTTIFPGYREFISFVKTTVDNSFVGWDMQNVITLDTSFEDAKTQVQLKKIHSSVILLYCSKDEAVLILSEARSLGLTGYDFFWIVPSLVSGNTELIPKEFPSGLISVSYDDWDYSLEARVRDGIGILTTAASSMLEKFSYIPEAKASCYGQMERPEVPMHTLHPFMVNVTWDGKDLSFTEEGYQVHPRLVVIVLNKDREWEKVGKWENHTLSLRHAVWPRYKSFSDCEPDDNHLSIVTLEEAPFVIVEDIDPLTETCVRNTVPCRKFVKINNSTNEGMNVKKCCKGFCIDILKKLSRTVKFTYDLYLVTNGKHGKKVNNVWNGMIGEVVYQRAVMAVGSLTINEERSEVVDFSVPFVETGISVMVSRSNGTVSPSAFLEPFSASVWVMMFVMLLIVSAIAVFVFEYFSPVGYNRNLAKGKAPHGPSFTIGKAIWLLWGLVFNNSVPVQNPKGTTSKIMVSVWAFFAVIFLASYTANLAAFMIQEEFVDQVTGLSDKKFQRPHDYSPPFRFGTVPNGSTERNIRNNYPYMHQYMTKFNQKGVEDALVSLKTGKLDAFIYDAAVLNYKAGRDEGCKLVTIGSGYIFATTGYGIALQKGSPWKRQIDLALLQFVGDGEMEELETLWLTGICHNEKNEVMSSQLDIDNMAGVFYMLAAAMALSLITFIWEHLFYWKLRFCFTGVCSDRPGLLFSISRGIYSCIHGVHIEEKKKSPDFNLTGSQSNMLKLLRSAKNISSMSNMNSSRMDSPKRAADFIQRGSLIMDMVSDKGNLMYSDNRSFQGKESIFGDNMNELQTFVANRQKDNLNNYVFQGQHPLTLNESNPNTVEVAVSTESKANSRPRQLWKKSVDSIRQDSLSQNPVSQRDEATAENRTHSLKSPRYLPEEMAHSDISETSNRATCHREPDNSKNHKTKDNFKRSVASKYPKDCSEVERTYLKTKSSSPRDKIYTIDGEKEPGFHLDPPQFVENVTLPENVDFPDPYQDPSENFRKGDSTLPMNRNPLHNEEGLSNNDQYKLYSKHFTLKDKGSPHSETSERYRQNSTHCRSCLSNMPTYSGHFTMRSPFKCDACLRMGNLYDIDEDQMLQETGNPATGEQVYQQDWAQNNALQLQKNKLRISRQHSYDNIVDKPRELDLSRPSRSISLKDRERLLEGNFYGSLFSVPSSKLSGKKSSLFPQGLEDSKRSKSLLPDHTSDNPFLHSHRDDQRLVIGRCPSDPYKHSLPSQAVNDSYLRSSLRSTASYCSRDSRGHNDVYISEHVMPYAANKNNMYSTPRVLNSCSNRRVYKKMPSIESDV

For `CN1CCCC12CC=CCNC2=O` (single isomer, unassigned) [GC-2, 1-methyl-1,7-diazaspiro[4.6]undec-9-en-6-one], the “Plasma (Rat): percent of compound remaining” value in “Plasma stability (Rat)” is recorded as 103%. Moreover, the “Microsomal (Human): percent of compound remaining” value in data set [1] was 82% and 100%. For the same compound, the “Plasma (Human): percent of compound remaining” value in “Plasma stability (Human)” came out at 98%. Besides, on NMDAR2B, the EC50 was < 1 nM and the “NMDAR2B A: % maximal [3H]MK-801 binding relative to 1 mM glycine” value is recorded as “+ (<100%=+)”. Moreover, on NMDAR2A, the EC50 is ≥ 1 nM. The “NMDAR2A A: % maximal [3H]MK-801 binding relative to 1 mM glycine” value on NMDAR2A (relative to 1 mM glycine) is listed as “+ (<100%=+)”.

Regarding `O=C1NCC=CCC12CCCN2Cc1ccccc1` (single isomer, unassigned) [GP-2, 1-benzyl-1,7-diazaspiro[4.6]undec-9-en-6-one], the “Plasma (Rat): percent of compound remaining” value in the data set “Plasma stability (Rat)” worked out at 85%. Moreover, the “Microsomal (Human): percent of compound remaining” value in data set [1] came out at 89%. Further, in data set [2], the “Microsomal (Rat): percent of compound remaining” value amounted to 7%. Besides, the “Plasma (Human): percent of compound remaining” value in “Plasma stability (Human)” was determined as 96%. Further, on NMDAR2B, the EC50 is < 1 nM and the “NMDAR2B A: % maximal [3H]MK-801 binding relative to 1 mM glycine” value is on record as “+ (<100%=+)”. Further, the EC50 on NMDAR2A is < 1 nM. Also, on NMDAR2A (relative to 1 mM glycine), the “NMDAR2A A: % maximal [3H]MK-801 binding relative to 1 mM glycine” value is “++ (>100%=++)”.

Regarding `O=C1N(Cc2ccc(F)cc2)CC=CCC12CCCN2` (single isomer, unassigned) [GK-1, 7-(4-fluorobenzyl)-1,7-diazaspiro[4.6]undec-9-en-6-one], in the data set with Sprague Dawley rats, the “% reduction in float time” value came out at 24% and the Significance vs. vehicle result is given as “No”. In [3], the Tmax was determined as 30 min, the AUC(0-t) turned out to be 718 ng·h/mL, the bioavailability worked out at 43% and the Cmax was 642 ng/mL. Further, in data set [3], the “CSF Cmax” value is recorded as 322.45 ng/mL and the “Brain Cmax” value turned out to be 3368.95 ng/mL. On NMDAR2B, the EC50 is < 1 nM and the Emax was > 100%. In addition, the EC50 on NMDAR2A is < 1 nM. Also, the “NMDAR2A A: % maximal [3H]MK-801 binding relative to 1 mM glycine” value at NMDAR2A (relative to 1 mM glycine) is “+ (<100%=+)”. Moreover, in data set [4], the exposure AUC(0-t) was found to be 335 ng·h/mL, the clearance is 98.4 mL/min/kg, the half-life is 32.4 min and the Cmax was 854 ng/mL. The Vd in data set [4] is 3.01 L/kg.

Regarding `CC(C)C(=O)N1CCCC12CC=CCNC2=O` (single isomer, unassigned) [GH-2, 1-isobutyryl-1,7-diazaspiro[4.6]undec-9-en-6-one], in [3], the time to peak (Tmax) turned out to be 25.2 min, the AUC(0-t) stood at 11300 ng·h/mL, the bioavailability was 100% and the Cmax was 5300 ng/mL. Moreover, in [3], the “CSF Cmax” value is 2296.73 ng/mL and the “Brain Cmax” value was found to be 1424.03 ng/mL. In [1], the “Microsomal (Human): percent of compound remaining” value is 87%. For the same compound, the “Microsomal (Rat): percent of compound remaining” value in data set [2] is on record as 104%. For the same compound, at NMDAR2B, the concentration for a half-maximal effect (EC50) was < 1 nM and the “NMDAR2B A: % maximal [3H]MK-801 binding relative to 1 mM glycine” value is “++ (>100%=++)”. Besides, the EC50 at NMDAR2A was < 1 nM. Besides, the “NMDAR2A A: % maximal [3H]MK-801 binding relative to 1 mM glycine” value at NMDAR2A (relative to 1 mM glycine) is on record as “+ (<100%=+)”. In addition, in [4], the AUC(0-t) amounted to 1990 ng·h/mL, the clearance turned out to be 16.7 mL/min/kg, the half-life was 25.8 min and the Cmax was 1500 ng/mL. For the same compound, the Vd in data set [4] is 0.75 L/kg.

As to `CN1CCCC12CC=CCNC2=O` (single isomer, unassigned) [GC-1, 1-methyl-1,7-diazaspiro[4.6]undec-9-en-6-one], in data set [3], the time to peak (Tmax) was 25.2 min, the AUC(0-t) is 4430 ng·h/mL, the bioavailability is 87% and the Cmax was determined as 2400 ng/mL. Moreover, in data set [3], the “CSF Cmax” value amounted to 744.03 ng/mL and the “Brain Cmax” value came out at 2578.7 ng/mL. Besides, in the data set “Plasma stability (Rat)”, the “Plasma (Rat): percent of compound remaining” value was 89%. In addition, in data set [1], the “Microsomal (Human): percent of compound remaining” value is 115% and 67%. The “Plasma (Human): percent of compound remaining” value in the data set “Plasma stability (Human)” stood at 97%. Moreover, at NMDAR2B, the EC50 is < 1 nM and the Emax was > 100%. In addition, the EC50 at NMDAR2A is < 1 nM. For the same compound, the Emax on NMDAR2A (0.25 h, relative to 1 mM glycine, read-out: NMDAR2A A: % maximal [3H]MK-801 binding relative to 1 mM glycine) was < 100%. Further, in data set [4], the exposure AUC(0-t) stood at 1020 ng·h/mL, the clearance was 32.2 mL/min/kg, the half-life was 40.8 min and the Cmax was determined as 1210 ng/mL. Moreover, the Vd in data set [4] came out at 1.78 L/kg.

The values are drawn from US20210047324A1 (Aptinyx Inc., priority 2018, published 2021).
